Measured values: US20240018132A1, “5-HYDROXY-1,4-NAPHTHALENEDIONE FOR USE IN THE TREATMENT OF CANCER” (GODAVARI BIOREFINERIES LIMITED, priority 2020, published 2024)

Tests used:
Assay type in all cases: cell-based
MDAMB231 = assay: In vitro antiproliferative assay (MTT assay), breast cancer cell line; conditions: Homo sapiens, MDA-MB-231, MTT assay, MDAMB231
Summary of the method: (§1)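 Growth inhibition determined by MTT (0.5 mg/ml, 4 h) following 48 h compound treatment of cells plated 24 h earlier at 37 °C, 5% CO2.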

PC3 = assay: In vitro antiproliferative assay (MTT assay), prostate cancer cell line; conditions: Homo sapiens, PC-3, MTT assay, PC3
Summary of the method: as §1

MCF7 = assay: In vitro antiproliferative assay (MTT assay), MCF7; conditions: Homo sapiens, second value of MDAMB231/MCF7 column
Experimental: MTT assay is a simple and sensitive assay where, metabolic reducing activity of the cells is measured. The increase of this activity in time is taken as a parameter of cell growth. If treatment with a drug impairs this increase, the action is a consequence of growth inhibition, cell killing or both. […] All cell lines were cultured in a 37° C. incubator with a 5% CO2 environment. Compounds were dissolved in DMSO with a concentration of 0.1M (stock solution). Cells were seeded into 96-well plates at suitable plating efficiency.
In the MTT procedure, the cells were plated in 96 well plates as per predetermined plating efficiency (Table1). The plates were then incubated for 24 hrs in 5% CO2 atmosphere at 37° C. Appropriate concentrations of the drugs were then added to the plate and further incubation was carried out for 48 hrs (in 5% CO2 atmosphere at 37° C.). The assay plate was then centrifuged twice at 3000 rpm for 3 mins and supernatant was then discarded. 100 ul of MTT solution (0.5 mg/ml) was then added to each well of the plate and it was further incubated for 4 hrs (in 5% CO2 atmosphere at 37° C.) Following 4 hr incubation, the plate was then centrifuged twice, and supernatant was aspirated off very carefully. 200 ul of DMSO was then added to each well to solubilize. MTT crystals and mixed well by shaking the plate. […]

| IC50 (MDAMB231) [nM] | IC50 (PC3) [nM] | IC50 (MCF7) [nM] | Compound |
| --- | --- | --- | --- |
| 970 | 582 | 480 | O=C1C(Oc2ccc3c(c2)OCO3)=CC(=O)c2c(OCCCCN3CCOCC3)cccc21 [Formula 82] |
| 860 | 721 | 660 | O=C1C=C(Oc2ccc(F)c(F)c2)C(=O)c2c(OCCN3CCOCC3)cccc21 [Formula 83] |
